According to US6916812B2, “Alpha-aminoamide derivatives as melanocortin agonists” (Bristol-Myers Squibb Company, priority 2001, dated 2005):
pIC50: −log10 of the molar value. Like-named read-outs stand apart in the source and are kept apart here.

Target: T1, cloned human MC4R (Homo sapiens, UniProt P32245)
T1 construct: made in house; host or cells: Hi5 insect cells (baculovirus infection); membrane preparation
Assay: Membrane binding assay: competitive inhibition of [125I]NDP-α-MSH binding
Details: for inhibition at 10 µM: read-out: Displacement Rate (%) (at 10 μM); for pIC50: read-out: MC4R IC50
Protocol: Hi5 cells are infected using the following protocol: Cells at a density of 1×10^6 cells/mL are spun down at 1000 rpm (Beckman GS-6KR centrifuge) for 10 minutes. Cells are resuspended in 10% of their original volume in a sterile 50 mL conical centrifuge tube wrapped with aluminum foil. Virus is added at a Multiplicity of Infection (MOI) of 3 and incubated for 1 hour at room temperature with gentle shaking. […] Cells are spun down in 50 mL conical centrifuge tubes at 1000 rpm for 10 minutes. Each of the resulting pellets are resuspended in 10 mL of cold (4° C.) membrane buffer (25 mM HEPES, pH 7.4, 140 mM NaCl, 1.2 mM MgCl2, 2.5 mM CaCl2, 10 μG/mL Aprotinin, 10 μG/mL Leupeptin) and Dounce homogenized using 10-12 strokes. […] The resulting pellet is resuspended in cold membrane buffer in a total of ¼ of the original volume by vortexing and aspiration using a syringe and 27 gauge needle. Protein content is determined (Bradford, Bio-Rad Protein Assay). Membranes are aliquoted in microcentrifuge tubes and quick frozen in liquid nitrogen. Store at −80° C. until use. The membrane binding buffer is composed of 25 mM HEPES, pH 7.4, 140 mM NaCl, 1.2 mM MgCl2, 2.5 mM CaCl2, 0.1% BSA. […] The mixture is filtered with Brandel Microplate 96 filter apparatus using 96-well GF/B filter presoaked in 1-% polyethyleneimine (Sigma). The filter is washed (4 times with a total of 1 mL per well) with cold wash buffer consisting of 20 mM HEPES, pH 7.4, 5 mM MgCl2. […] 100 μl of Wallac Optiphase Supermix scintillation fluid is added to each well. The top is sealed and the plates are shaken to insure that the filters are thoroughly soaked with fluid. […] Dose-response curves are fitted by […] analyses and IC50 values are calculated using ExcelFit.

[1] = at 10 μM, [125I]NDP-α-MSH displacement

T1 sequence (P32245 whole entry): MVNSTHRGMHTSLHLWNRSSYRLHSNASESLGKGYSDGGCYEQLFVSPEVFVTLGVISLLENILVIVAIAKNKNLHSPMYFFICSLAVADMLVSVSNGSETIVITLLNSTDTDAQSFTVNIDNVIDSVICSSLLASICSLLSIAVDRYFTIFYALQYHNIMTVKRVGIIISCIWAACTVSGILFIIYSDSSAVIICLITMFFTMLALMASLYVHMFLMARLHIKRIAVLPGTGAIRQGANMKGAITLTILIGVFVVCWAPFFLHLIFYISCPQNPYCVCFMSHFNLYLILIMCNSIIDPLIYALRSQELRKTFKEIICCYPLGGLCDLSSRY

Structure (SMILES)	inhibition at 10 µM [1] [%]	pIC50	inhibition at 10 µM [%]
N[C@@H](Cc1ccc(OCc2ccccc2)cc1)C(=O)N1CCN(Cc2ccc(C(F)(F)F)cc2C(F)(F)F)CC1 [Example 98]	91 to 100	5.52 to 5.82	
CCCCCOc1ccc(CN2CCN(C(=O)[C@@H](N)Cc3ccc(OCc4ccccc4)cc3)CC2)cc1 [Example 99]	91 to 100	> 5.82	
N[C@@H](Cc1ccc(OCc2ccccc2)cc1)C(=O)N1CCN(Cc2c3ccccc3cc3ccccc23)CC1 [Example 100]		5.52 to 5.82	91 to 100
N[C@@H](Cc1ccc(OCc2ccccc2)cc1)C(=O)N1CCN(Cc2cc(C(F)(F)F)cc(C(F)(F)F)c2)CC1 [Example 101]	91 to 100	> 5.82	
N[C@@H](Cc1ccc(OCc2ccccc2)cc1)C(=O)N1CCN(CC(c2ccccc2)c2ccccc2)CC1 [Example 102]	91 to 100	5.52 to 5.82	
N[C@@H](Cc1ccc(OCc2ccccc2)cc1)C(=O)N1CCN(Cc2cccc(Oc3ccccc3)c2)CC1 [Example 103]	91 to 100	> 5.82	
CCOc1ccc(CN2CCN(C(=O)[C@@H](N)Cc3ccc(OCc4ccccc4)cc3)CC2)c(OCC)c1C [Example 104]	91 to 100	5.52 to 5.82	
N[C@@H](Cc1ccc(OCc2ccccc2)cc1)C(=O)N1CCN(Cc2ccc3ccccc3c2)CC1 [Example 105]	71 to 90	> 5.82	
COc1ccc2ccccc2c1CN1CCN(C(=O)[C@@H](N)Cc2ccc(OCc3ccccc3)cc2)CC1 [Example 106]	71 to 90	5.52 to 5.82	
Cc1ccc(C)c(CN2CCN(C(=O)[C@@H](N)Cc3ccc(OCc4ccccc4)cc3)CC2)c1 [Example 107]	71 to 90	5.52 to 5.82	
N[C@@H](Cc1ccc(OCc2ccccc2)cc1)C(=O)N1CCN(Cc2ccccc2-c2ccccc2)CC1 [Example 109]	71 to 90	< 5.52	
N[C@@H](Cc1ccc(OCc2ccccc2)cc1)C(=O)N1CCN(Cc2ccc(OCc3ccc([N+](=O)[O-])cc3)cc2)CC1 [Example 110]	71 to 90	> 5.82	
N[C@@H](Cc1ccc(OCc2ccccc2)cc1)C(=O)N1CCN(Cc2ccccc2[N+](=O)[O-])CC1 [Example 111]	71 to 90	< 5.52	
CC(C)(C)c1ccc(CN2CCN(C(=O)[C@@H](N)Cc3ccc(OCc4ccccc4)cc3)CC2)cc1 [Example 112]	71 to 90	5.52 to 5.82	
N[C@@H](Cc1ccc(OCc2ccccc2)cc1)C(=O)N1CCN(CC2CCCCC2)CC1 [Example 113]	71 to 90	> 5.82	
N[C@@H](Cc1ccc(OCc2ccccc2)cc1)C(=O)N1CCN(Cc2ccc(Cl)c([N+](=O)[O-])c2)CC1 [Example 114]		< 5.52	71 to 90
COc1cc(CN2CCN(C(=O)[C@@H](N)Cc3ccc(OCc4ccccc4)cc3)CC2)ccc1OCc1ccccc1 [Example 115]	71 to 90	< 5.52	
CCOc1ccccc1CN1CCN(C(=O)[C@@H](N)Cc2ccc(OCc3ccccc3)cc2)CC1 [Example 116]	71 to 90	5.52 to 5.82	
CCOc1cccc(CN2CCN(C(=O)[C@@H](N)Cc3ccc(OCc4ccccc4)cc3)CC2)c1O [Example 117]	71 to 90	< 5.52	
N[C@@H](Cc1ccc(OCc2ccccc2)cc1)C(=O)N1CCN(C2CCC(c3ccccc3)CC2)CC1 (some centres unmarked) [Example 118]	71 to 90	< 5.52	
N[C@@H](Cc1ccc(OCc2ccccc2)cc1)C(=O)N1CCN(Cc2ccc(Cl)cc2Cl)CC1 [Example 119]	71 to 90	< 5.52	
N[C@@H](Cc1ccc(OCc2ccccc2)cc1)C(=O)N1CCN(Cc2cccc(F)c2F)CC1 [Example 120]	71 to 90	< 5.52	
COc1cc(CN2CCN(C(=O)[C@@H](N)Cc3ccc(OCc4ccccc4)cc3)CC2)cc(Br)c1OC [Example 121]	71 to 90	5.52 to 5.82	
CCCCCCCN1CCN(C(=O)[C@@H](N)Cc2ccc(OCc3ccccc3)cc2)CC1 [Example 122]	71 to 90	5.52 to 5.82	
N[C@@H](Cc1ccc(OCc2ccccc2)cc1)C(=O)N1CCN(Cc2cccc(C(F)(F)F)c2)CC1 [Example 123]	71 to 90	< 5.52	
N[C@@H](Cc1ccc(OCc2ccccc2)cc1)C(=O)N1CCN(Cc2cc3c(cc2Cl)OCO3)CC1 [Example 124]		< 5.52	71 to 90

Structure (SMILES)	inhibition at 10 µM [1] [%]	pIC50	inhibition at 10 µM [%]
CSc1ccc(CN2CCN(C(=O)[C@@H](N)Cc3ccc(OCc4ccccc4)cc3)CC2)cc1 [Example 125]	71 to 90	5.52 to 5.82	
CCCOc1ccc(CN2CCN(C(=O)[C@@H](N)Cc3ccc(OCc4ccccc4)cc3)CC2)cc1 [Example 126]	71 to 90	5.52 to 5.82	
N[C@@H](Cc1ccc(OCc2ccccc2)cc1)C(=O)N1CCN(Cc2cccc3ccccc23)CC1 [Example 127]	71 to 90		
Cc1ccsc1CN1CCN(C(=O)[C@@H](N)Cc2ccc(OCc3ccccc3)cc2)CC1 [Example 128]	35 to 70	< 5.52	
N[C@@H](Cc1ccc(OCc2ccccc2)cc1)C(=O)N1CCN(Cc2ccc(Br)cc2)CC1 [Example 129]	35 to 70	< 5.52	
COc1cc(OC)c(CN2CCN(C(=O)[C@@H](N)Cc3ccc(OCc4ccccc4)cc3)CC2)cc1Br [Example 130]	35 to 70	< 5.52	
CCc1ccc(CN2CCN(C(=O)[C@@H](N)Cc3ccc(OCc4ccccc4)cc3)CC2)s1 [Example 131]	35 to 70	< 5.52	
COc1ccc(CCC(C)N2CCN(C(=O)[C@@H](N)Cc3ccc(OCc4ccccc4)cc3)CC2)cc1 (some centres unmarked) [Example 132]	35 to 70	< 5.52	
CCCCCCCCOc1ccc(CN2CCN(C(=O)[C@@H](N)Cc3ccc(OCc4ccccc4)cc3)CC2)cc1 [Example 133]	35 to 70	> 5.82	
N[C@@H](Cc1ccc(OCc2ccccc2)cc1)C(=O)N1CCN(Cc2cc([N+](=O)[O-])ccc2Cl)CC1 [Example 134]		5.52 to 5.82	35 to 70
CCc1ccc(CN2CCN(C(=O)[C@@H](N)Cc3ccc(OCc4ccccc4)cc3)CC2)cc1 [Example 135]	35 to 70	< 5.52	
CC(Cc1cccc(C(F)(F)F)c1)N1CCN(C(=O)[C@@H](N)Cc2ccc(OCc3ccccc3)cc2)CC1 (some centres unmarked) [Example 136]	35 to 70	< 5.52	
CN(C)c1ccc(CN2CCN(C(=O)[C@@H](N)Cc3ccc(OCc4ccccc4)cc3)CC2)c2ccccc12 [Example 137]	35 to 70	< 5.52	
N[C@@H](Cc1ccc(OCc2ccccc2)cc1)C(=O)N1CCN(Cc2ccc(C(F)(F)F)cc2)CC1 [Example 138]	35 to 70	< 5.52	
N[C@@H](Cc1ccc(OCc2ccccc2)cc1)C(=O)N1CCN(C2CCN(CCc3ccccc3)CC2)CC1 [Example 139]	35 to 70	5.52 to 5.82	
N[C@@H](Cc1ccc(OCc2ccccc2)cc1)C(=O)N1CCN(Cc2c(F)cccc2Cl)CC1 [Example 140]	35 to 70	< 5.52	
N[C@@H](Cc1ccc(OCc2ccccc2)cc1)C(=O)N1CCN(Cc2ccccc2)CC1 [Example 141]	35 to 70	< 5.52	
N[C@@H](Cc1ccc(OCc2ccccc2)cc1)C(=O)N1CCN(Cc2c(F)cccc2F)CC1 [Example 142]	35 to 70	< 5.52	
CC(C)N1CCN(C(=O)[C@@H](N)Cc2ccc(OCc3ccccc3)cc2)CC1 [Example 143]	35 to 70	< 5.52	
Cc1cccc(CN2CCN(C(=O)[C@@H](N)Cc3ccc(OCc4ccccc4)cc3)CC2)c1 [Example 144]	35 to 70	< 5.52	
N[C@@H](Cc1ccc(OCc2ccccc2)cc1)C(=O)N1CCN(Cc2cc(F)ccc2F)CC1 [Example 145]	35 to 70	< 5.52	
CC(C)CN1CCN(C(=O)[C@@H](N)Cc2ccc(OCc3ccccc3)cc2)CC1 [Example 146]	35 to 70	< 5.52	
N[C@@H](Cc1ccc(OCc2ccccc2)cc1)C(=O)N1CCN(CCCc2ccccc2)CC1 [Example 147]	35 to 70	< 5.52	
N[C@@H](Cc1ccc(OCc2ccccc2)cc1)C(=O)N1CCN(Cc2cc(O)ccc2[N+](=O)[O-])CC1 [Example 148]		< 5.52	35 to 70
N[C@@H](Cc1ccc(OCc2ccccc2)cc1)C(=O)N1CCN(Cc2ccc([N+](=O)[O-])cc2)CC1 [Example 149]	35 to 70	< 5.52	
